pEC50: −log10 of the molar value.
Tested on: DENV-2 NGC
Test: Antiviral activity against DENV-2 NGC in Vero-B cells (viral RNA load by RT-qPCR)
Assay type: cell-based, Dengue virus
Details: Dengue virus, DENV2, Vero B, DENV-2 in Vero-B cells; inhibition of viral RNA replication by 50% (Table 3)

SMILES	pEC50
COc1cccc(NC(C(=O)c2c[nH]c3ccc(C#N)cc23)c2ccccc2)c1 (stereo not shown) [CPD-126]	7.15
COc1cccc(NC(C(=O)c2c[nH]c3ccc(C)cc23)c2ccccc2)c1 (stereo not shown) [CPD-130]	7.52
COc1cccc(NC(C(=O)c2cn(C)c3ccc(F)cc23)c2ccccc2)c1 (stereo not shown) [CPD-137]	7.30
COc1cccc(NC(C(=O)c2cn(CCO)c3ccc(F)cc23)c2ccccc2)c1 (stereo not shown) [CPD-146]	7.30
COc1cc(NC(C(=O)c2cn(CCO)c3ccccc23)c2ccccc2)cc(OC)c1 (stereo not shown) [CPD-148]	7.15
COc1cccc(NC(C(=O)c2c[nH]c3cc(Cl)ccc23)c2cn3ccccc3n2)c1 (stereo not shown) [CPD-150]	7.52
COc1cccc(NC(C(=O)c2c[nH]c3ccc(F)cc23)c2cccnc2)c1 (stereo not shown) [CPD-151]	7.05
COc1cccc(NC(C(=O)c2c[nH]c3cc(F)ccc23)c2cccnc2)c1 (stereo not shown) [CPD-152]	7.05
COc1cccc(NC(C(=O)c2c[nH]c3c(F)cccc23)c2cccnc2)c1 (stereo not shown) [CPD-153]	6.54
COc1cccc(NC(C(=O)c2c[nH]c3ccc(F)cc23)c2ccc(OC)nc2)c1 (stereo not shown) [CPD-154]	7.22
COc1cc(NC(C(=O)c2cn(CCCO)c3ccc(F)cc23)c2ccccc2)cc(OC)c1 (stereo not shown) [CPD-156]	7.70

Tested on: DENV-1 Djibouti strain D1/H/IMTSSA/98/606
Test: Antiviral activity against DENV-1 in Vero-B cells (viral RNA load by RT-qPCR)
Assay type: cell-based, Dengue virus
Details: Dengue virus, DENV1, Vero B

SMILES	pEC50
COc1cccc(NC(C(=O)c2c[nH]c3ccc(C#N)cc23)c2ccccc2)c1 (stereo not shown) [CPD-126]	5.52
COc1cccc(NC(C(=O)c2c[nH]c3ccc(C)cc23)c2ccccc2)c1 (stereo not shown) [CPD-130]	6.46
COc1cccc(NC(C(=O)c2cn(C)c3ccc(F)cc23)c2ccccc2)c1 (stereo not shown) [CPD-137]	6.17
COc1cccc(NC(C(=O)c2cn(CCO)c3ccc(F)cc23)c2ccccc2)c1 (stereo not shown) [CPD-146]	6.16
COc1cc(NC(C(=O)c2cn(CCO)c3ccccc23)c2ccccc2)cc(OC)c1 (stereo not shown) [CPD-148]	5.78
COc1cccc(NC(C(=O)c2c[nH]c3cc(Cl)ccc23)c2cn3ccccc3n2)c1 (stereo not shown) [CPD-150]	5.89
COc1cccc(NC(C(=O)c2c[nH]c3ccc(F)cc23)c2cccnc2)c1 (stereo not shown) [CPD-151]	6.28
COc1cccc(NC(C(=O)c2c[nH]c3cc(F)ccc23)c2cccnc2)c1 (stereo not shown) [CPD-152]	5.69
COc1cccc(NC(C(=O)c2c[nH]c3c(F)cccc23)c2cccnc2)c1 (stereo not shown) [CPD-153]	5.20
COc1cccc(NC(C(=O)c2c[nH]c3ccc(F)cc23)c2ccc(OC)nc2)c1 (stereo not shown) [CPD-154]	5.41
COc1cc(NC(C(=O)c2cn(CCCO)c3ccc(F)cc23)c2ccccc2)cc(OC)c1 (stereo not shown) [CPD-156]	6.21

Tested on: DENV-3 strain H87 prototype
Test: Antiviral activity against DENV-3 in Vero-B cells (viral RNA load by RT-qPCR)
Assay type: cell-based, Dengue virus
Details: Dengue virus, DENV3, Vero B

SMILES	pEC50
COc1cccc(NC(C(=O)c2c[nH]c3ccc(C#N)cc23)c2ccccc2)c1 (stereo not shown) [CPD-126]	5.07
COc1cccc(NC(C(=O)c2c[nH]c3ccc(C)cc23)c2ccccc2)c1 (stereo not shown) [CPD-130]	5.77
COc1cccc(NC(C(=O)c2cn(C)c3ccc(F)cc23)c2ccccc2)c1 (stereo not shown) [CPD-137]	5.42
COc1cccc(NC(C(=O)c2cn(CCO)c3ccc(F)cc23)c2ccccc2)c1 (stereo not shown) [CPD-146]	5.57
COc1cc(NC(C(=O)c2cn(CCO)c3ccccc23)c2ccccc2)cc(OC)c1 (stereo not shown) [CPD-148]	5.26
COc1cccc(NC(C(=O)c2c[nH]c3cc(Cl)ccc23)c2cn3ccccc3n2)c1 (stereo not shown) [CPD-150]	5.97
COc1cccc(NC(C(=O)c2c[nH]c3ccc(F)cc23)c2cccnc2)c1 (stereo not shown) [CPD-151]	5.68
COc1cccc(NC(C(=O)c2c[nH]c3cc(F)ccc23)c2cccnc2)c1 (stereo not shown) [CPD-152]	6.00
COc1cccc(NC(C(=O)c2c[nH]c3c(F)cccc23)c2cccnc2)c1 (stereo not shown) [CPD-153]	5.65
COc1cccc(NC(C(=O)c2c[nH]c3ccc(F)cc23)c2ccc(OC)nc2)c1 (stereo not shown) [CPD-154]	5.36
COc1cc(NC(C(=O)c2cn(CCCO)c3ccc(F)cc23)c2ccccc2)cc(OC)c1 (stereo not shown) [CPD-156]	5.67

Tested on: DENV-4 strain Dak HD 34 460
Test: Antiviral activity against DENV-4 in Vero-B cells (viral RNA load by RT-qPCR)
Assay type: cell-based, Dengue virus
Details: Dengue virus, DENV4, Vero B

SMILES	pEC50
COc1cccc(NC(C(=O)c2c[nH]c3ccc(C#N)cc23)c2ccccc2)c1 (stereo not shown) [CPD-126]	5.20
COc1cccc(NC(C(=O)c2c[nH]c3ccc(C)cc23)c2ccccc2)c1 (stereo not shown) [CPD-130]	5.13
COc1cccc(NC(C(=O)c2cn(C)c3ccc(F)cc23)c2ccccc2)c1 (stereo not shown) [CPD-137]	5.56
COc1cccc(NC(C(=O)c2cn(CCO)c3ccc(F)cc23)c2ccccc2)c1 (stereo not shown) [CPD-146]	5.37
COc1cc(NC(C(=O)c2cn(CCO)c3ccccc23)c2ccccc2)cc(OC)c1 (stereo not shown) [CPD-148]	5.54
COc1cccc(NC(C(=O)c2c[nH]c3cc(Cl)ccc23)c2cn3ccccc3n2)c1 (stereo not shown) [CPD-150]	5.05
COc1cccc(NC(C(=O)c2c[nH]c3ccc(F)cc23)c2cccnc2)c1 (stereo not shown) [CPD-151]	5.31
COc1cccc(NC(C(=O)c2c[nH]c3cc(F)ccc23)c2cccnc2)c1 (stereo not shown) [CPD-152]	5.25
COc1cccc(NC(C(=O)c2c[nH]c3c(F)cccc23)c2cccnc2)c1 (stereo not shown) [CPD-153]	5.43
COc1cccc(NC(C(=O)c2c[nH]c3ccc(F)cc23)c2ccc(OC)nc2)c1 (stereo not shown) [CPD-154]	5.01
COc1cc(NC(C(=O)c2cn(CCCO)c3ccc(F)cc23)c2ccccc2)cc(OC)c1 (stereo not shown) [CPD-156]	5.47

Tested on: not listed separately
Test: in vitro
Details: African green monkey

SMILES	CC50 [nM]
COc1cccc(NC(C(=O)c2cn(CCO)c3ccc(F)cc23)c2ccccc2)c1 (stereo not shown) [CPD-146]	25000
COc1cc(NC(C(=O)c2cn(CCO)c3ccccc23)c2ccccc2)cc(OC)c1 (stereo not shown) [CPD-148]	44000
COc1cc(NC(C(=O)c2cn(CCCO)c3ccc(F)cc23)c2ccccc2)cc(OC)c1 (stereo not shown) [CPD-156]	11000

Same assay, conditions: African green monkey, uninfected quiescent Vero-B cells

SMILES	CC50 at 4 days [nM]
COc1cccc(NC(C(=O)c2c[nH]c3ccc(C#N)cc23)c2ccccc2)c1 (stereo not shown) [CPD-126]	16000
COc1cccc(NC(C(=O)c2c[nH]c3ccc(C)cc23)c2ccccc2)c1 (stereo not shown) [CPD-130]	15000
COc1cccc(NC(C(=O)c2cn(C)c3ccc(F)cc23)c2ccccc2)c1 (stereo not shown) [CPD-137]	> 128000
COc1cccc(NC(C(=O)c2c[nH]c3cc(Cl)ccc23)c2cn3ccccc3n2)c1 (stereo not shown) [CPD-150]	105000
COc1cccc(NC(C(=O)c2c[nH]c3ccc(F)cc23)c2cccnc2)c1 (stereo not shown) [CPD-151]	> 133000
COc1cccc(NC(C(=O)c2c[nH]c3cc(F)ccc23)c2cccnc2)c1 (stereo not shown) [CPD-152]	75000
COc1cccc(NC(C(=O)c2c[nH]c3c(F)cccc23)c2cccnc2)c1 (stereo not shown) [CPD-153]	> 133000
COc1cccc(NC(C(=O)c2c[nH]c3ccc(F)cc23)c2ccc(OC)nc2)c1 (stereo not shown) [CPD-154]	44000

Reference: patent publication US12012411B2, “Viral replication inhibitors” (Katholieke Universiteit Leuven, priority 2011, dated 2024)
